Measurements from patent US20070099237A1, “Reaction co-crystallization of molecular complexes or co-crystals” (The Regents of The University of Michigan, priority 2005, published 2007).
≈ marks a conversion by molar mass, not a printed value. Like-named read-outs stand apart in the source and are kept apart here.

Experiment: Solubility of co-crystal and reactants in organic solvents at 25° C.
Format: physicochemical
Details: mean +/− deviation; for solubility: organic solvent or mixture, thermodynamic from solid
Protocol: The predicted reduction in solubility of the co-crystal is borne out experimentally as illustrated, for example in FIG. 4, which uses the carbamazepine nicotinamide 1:1 co-crystal (CBZ:NCT) for illustration. The CBZ:NCT co-crystal is known; solubilities for the co-crystal and the reactants CBZ and NCT in three solvents (ethanol, […]) are given in the table.
Solubilities are given at 25° C. and are expressed as the mean +/− the deviation for a sample size of 3. It is noted that only in ethyl acetate is the co-crystal the least soluble component. Accordingly, the co-crystal can be precipitated from equimolar solutions of CBZ and NCT in ethyl acetate to produce the co-crystal by cooling or evaporation methods.

[1] = 2-propanol, sample size 3, read-out: Solubility in 2-Propanol
[2] = ethanol, sample size 3, read-out: Solubility in Ethanol
[3] = ethyl acetate, sample size 3, read-out: Solubility in Ethyl acetate

SMILES | Solubility in 2-Propanol (2-propanol, sample size 3) [mM] | Solubility in Ethanol (ethanol, sample size 3) [mM] | Solubility in Ethyl acetate (ethyl acetate, sample size 3) [mM] | solubility [1] [mM] | solubility [2] [mM] | solubility [3] [mM]
NC(=O)N1c2ccccc2C=Cc2ccccc21.NC(=O)c1cccnc1 [CBZ:NCT, Carbamazepine:Nicotinamide co-crystal] | 44 ± 3 | 116 ± 3 | 24 ± 1 |  |  | 
NC(=O)N1c2ccccc2C=Cc2ccccc21 [CBZ(III), carbamazepine] |  |  |  | 39 ± 3 (≈ 9.21 mg/mL) | 108 ± 0.1 (≈ 25.5 mg/mL) | 44 ± 0.1 (≈ 10.4 mg/mL)
NC(=O)c1cccnc1 [NCT(I), Nicotinamide] |  |  |  | 496 ± 4 (≈ 60.6 mg/mL) | 841 ± 8 (≈ 103 mg/mL) | 98 ± 2 (≈ 12 mg/mL)
